Experimental findings from patent publication EP4631501A1, “COMBINATIONS OF A CALCIUM HOMEOSTASIS DISRUPTOR WITH A DEATH RECEPTOR 5 AGONIST FOR TREATING CANCER” (Stichting Het Nederlands Kanker Instituut- Antoni van …, priority 2024, dated 2025) are described below.

The structures appear in SMILES notation. Read-outs that look alike come from different tables or passages of the source.

In one experiment the test system is A549 cells. Briefly: Colony formation assay in SLC25A23 shRNA knock-down A549 cells treated with senescence inducers. In kind it is cell-based. The conditions noted are these: three independent shRNAs targeting SLC25A23.
A further experiment relates to DR5. Briefly: Western blot of DR5 induction in A549 cells treated with salinomycin and NAC. In kind it is cell-based. The conditions noted are these: salinomycin plus NAC. The text has this: (Fig. 3A). This notion was also supported by the western blot analysis. We observed that an upregulation of death receptor 5 (DR5), cleavage of caspase 3 and 8 (cl-CASP8 and 3), indicates extrinsic apoptosis activation. […] In Figure 3B, we noticed the upregulation of cJUn and DR5 by salinomycin treatment. This has been denoted by the past studies showing salinomycin could modulate autophagy to induce ROS (Verdoodt 2012). The elevated ROS led to cJun upregulation and NF-kB activation to increase the DR5 expression (Fu 2010). To validated molecular mechanism in our senescent models, we knocked-down cJun, NF-kB2 and Nrf2 using shRNA. […]
• Figure 1: CRISPR-based senolytic screen identifies SLC25A23 as a senolytic target • (A). […] Changes in library representation after 10 days doxycycline treatment were determined by Illumina deep-sequencing. • (B). gRNAs prioritized for further analysis were selected by the fold depletion of abundance in S2 and S1 samples compared with that in P2 and P2 samples, using methods as described previously (Evers et al., Nat Biotech, 2016). […] Cell viability was assessed by colony formation assay in the A549 cells stably infected with doxycycline-inducible Cas9 (iCas9) lentiviral vectors and a guide RNAs target SLC25A23 lentiviral vector. […] Cell viability was assessed by colony formation assay in the A549 and MDA-MB-231 cells. […]

In experiment [1] the test system is Hepa1-6 liver cancer cells. It is filed as in vivo, C57BL/6 mice. The text has this: (§1) In order to obtain a synergistic effect, we combed low doses of DR5 agonist antibody either IgG-conatumumab or IgA-conatumumab with salinomycin, as senolytic cocktails. […] To test this senolytic cocktail in vivo, we used both immunodeficient and immunocompetent mouse models. We engrafted A549 cells into immunodeficient nude mice and Hepa1-6 liver cancer cells in syngeneic immunocompetent C57BL/6 mice. After tumors were established, we treated with alisertib to induce senescence and combinations of the two senolytic drugs.
(§2) Schematic of iCas9-associated senolytic CRISPR screen workflow. A549 cells were infected with a doxycycline-inducible Cas9 (iCas9) lentiviral vector. Next, Brunello lentiviral whole genome-wide gRNA collection virus was introduced to the A549-iCas9 cells. […] Changes in library representation after 10 days doxycycline treatment were determined by Illumina deep-sequencing. • (B). gRNAs prioritized for further analysis were selected by the fold depletion of abundance in S2 and S1 samples compared with that in P2 and P2 samples, using methods as described previously (Evers et al., Nat Biotech, 2016). […] Cell viability was assessed by colony formation assay in the A549 cells stably infected with doxycycline-inducible Cas9 (iCas9) lentiviral vectors and a guide RNAs target SLC25A23 lentiviral vector.

The test system of the next experiment is A549 lung cancer cells. In kind it is in vivo, BALB/c nude mice.
Excerpt: as §1, §2

The next experiment deals with senescent cells. Kind of experiment: Cell morphology imaging of senescent cells treated with salinomycin.
Experiment [2] relates to alisertib-induced senescent and proliferating A549. Briefly: Western blot of cell death biomarkers in alisertib-induced senescent and proliferating A549. (Immunoblotting shows a protein as a band on a membrane.)
In experiment [3] the test system is lung (A549), breast (MDA-MB-231, MCF-7, T47D) and liver (SK-Hep1) cancer models. Briefly: Colony formation assay, senescent versus proliferating cancer cells treated with salinomycin.

In the case of `COc1ccc2c(c1)C1(CC1c1ccc3c(C=Cc4ccc(CN5CC(C)OC(C)C5)cc4)n[nH]c3c1)C(=O)N2` (stereo not shown) [CFI-400945], the “sensitivity of SLC25A23 suppressed cells to senescence inducers” value (“sensitivity of SLC25A23 suppressed cells” below) with A549 cells is recorded as “highly sensitive”.

As to `CC(=O)N[C@@H](CS)C(=O)O` [N-Acetyl Cysteine (NAC), N-Acetyl Cysteine], the “DR5 upregulation in salinomycin treated cells” value in the experiment on DR5 is listed as “could reserve the DR5 upregulation”.

As to `COc1cc(Nc2ncc3c(n2)-c2ccc(Cl)cc2C(c2c(F)cccc2OC)=NC3)ccc1C(=O)O` [alisertib], the tumor growth entry in experiment [1] (Hepa1-6 in C57BL/6 mice, 25 mg kg-1 alisertib, 1.5 mg kg-1 salinomycin, 0.3 µg per dose MD5-1) is given as “limited tumor growth inhibition”; with A549 lung cancer cells (A549 in nude mice, 25 mg kg-1 alisertib, 1.5 mg kg-1 salinomycin, 5 µg per dose conatumumab (2.5 µg in three-way combination)), “limited tumor growth inhibition”. The “sensitivity of SLC25A23 suppressed cells” value with A549 cells is “highly sensitive”.

`COc1cc([C@@H]2c3cc4c(cc3[C@@H](O[C@@H]3O[C@@H]5CO[C@@H](C)O[C@H]5[C@H](O)[C@H]3O)[C@H]3COC(=O)[C@H]23)OCO4)cc(OC)c1O` [etoposide]: in the experiment with A549 cells, the “sensitivity of SLC25A23 suppressed cells” value is given as “highly sensitive”.

Consider `CC[C@@H](C(=O)[C@@H](C)[C@@H](O)[C@H](C)[C@@H]1O[C@@H]([C@@H](CC)C(=O)O)CC[C@@H]1C)[C@H]1O[C@]2(C=C[C@@H](O)[C@]3(CC[C@@](C)([C@H]4CC[C@](O)(CC)[C@H](C)O4)O3)O2)[C@H](C)C[C@@H]1C` [salinomycin], for which the “cell death phenotype under the microscope” value in the experiment with senescent cells is recorded as “PANoptosis phenotype”. Further, in experiment [2], the “Microtubule-associated protein 1A/1B-light chain 3 (LC3)” value is “upregulation”; the cJUn entry is given as “upregulation”; the “caspase 3 and 8 (cl-CASP8 and 3)” value is given as “cleavage”; the “cleaved Gasdermin-D (cl-GSDMD)” value is reported as “upregulation”. Moreover, in experiment [2], the “death receptor 5 (DR5)” value is recorded as “upregulation” and the “mixed lineage kinase domain-like protein (MLKL) phosphorylation” value was “increased phosphorylation”. Also, the tumor growth entry in experiment [1] (mouse, in vivo) was “limited tumor growth inhibition”. Besides, in experiment [3], the “killing of senescent cells versus proliferating cells” value is reported as “preferential killing of senescent cells over proliferating cells”. In the experiment on A549 lung cancer cells (mouse, in vivo), the tumor growth result is “limited tumor growth inhibition”.
